ChEMBL document CHEMBL5523689, “Synthesis and antimicrobial studies of cadasides analogues via on-resin esterification” (2024)

Key:
Type in all cases: functional
Staphylococcus aureus [1] = assay: Antibacterial activity against methicillin-resistant Staphylococcus aureus ATCC43300 by broth microdilution method
Escherichia coli = assay: Antibacterial activity against Escherichia coli ATCC25922 by broth microdilution method
Pseudomonas aeruginosa = assay: Antibacterial activity against Pseudomonas aeruginosa ATCC27853 by broth microdilution method
Bacillus pumilus = assay: Antibacterial activity against Bacillus pumilus ATCC63202 by broth microdilution method
Staphylococcus aureus [2] = assay: Antibacterial activity against […] Staphylococcus aureus ATCC25923 by broth microdilution method

SMILES: CCCCCCCCCC(=O)N[C@@H](Cc1c[nH]c2ccccc12)C(=O)N[C@H](CC(N)=O)C(=O)N[C@@H](CC(=O)O)C(=O)N[C@@H]1C(=O)NCC(=O)N[C@@H](CCCN)C(=O)N[C@@H](CC(=O)O)C(=O)N[C@H](C)C(=O)N[C@@H](CC(=O)O)C(=O)NCC(=O)N[C@H](CO)C(=O)N[C@@H]([C@H](C)CC(=O)O)C(=O)N[C@@H](CC(=O)c2ccccc2N)C(=O)O[C@@H]1C
- MIC (Staphylococcus aureus [1]): ≤ 5 mg/L
- MIC (Escherichia coli): ≤ 5 mg/L
- MIC (Pseudomonas aeruginosa): ≤ 5 mg/L
- MIC (Bacillus pumilus): ≤ 5 mg/L
- MIC (Staphylococcus aureus [2]): ≤ 5 mg/L

SMILES: CCCCCCCCC(=O)NC[C@@H](C)C(=O)NCC(=O)N[C@H](CCC(=O)O)C(=O)N[C@@H](Cc1ccc(O)cc1)C(=O)N[C@@H]1C(=O)N[C@H]([C@H](C)CC)C(=O)N[C@@H](CC(=O)O)C(=O)N[C@@H]([C@@H](O)C(=O)OC)C(=O)N2CCC[C@H]2C(=O)NCC(=O)N[C@H](CCC(=O)O)C(=O)N[C@@H](CCC(=O)O)C(=O)N(C)CC(=O)O[C@@H]1C
- MIC (Staphylococcus aureus [1]): ≥ 128 mg/L
- MIC (Escherichia coli): ≥ 128 mg/L
- MIC (Pseudomonas aeruginosa): ≥ 128 mg/L
- MIC (Bacillus pumilus): ≥ 128 mg/L
- MIC (Staphylococcus aureus [2]): ≥ 128 mg/L

SMILES: CCCCCCCCCC(=O)NC[C@@H](C)C(=O)NCC(=O)N[C@H](CCC(=O)O)C(=O)N[C@@H](Cc1ccc(O)cc1)C(=O)N[C@@H]1C(=O)N[C@H]([C@H](C)CC)C(=O)N[C@@H](CC(=O)O)C(=O)N[C@@H]([C@@H](O)C(=O)O)C(=O)N2CCC[C@H]2C(=O)NCC(=O)N[C@H](CCC(=O)O)C(=O)N[C@@H](CCC(=O)O)C(=O)N(C)CC(=O)O[C@@H]1C
- MIC (Staphylococcus aureus [1]): ≥ 128 mg/L
- MIC (Escherichia coli): ≥ 128 mg/L
- MIC (Pseudomonas aeruginosa): ≥ 128 mg/L
- MIC (Bacillus pumilus): ≥ 128 mg/L
- MIC (Staphylococcus aureus [2]): ≥ 128 mg/L

SMILES: CCCCCCCCC(=O)NC[C@@H](C)C(=O)NCC(=O)N[C@H](CCC(=O)O)C(=O)N[C@@H](Cc1ccc(O)cc1)C(=O)N[C@@H]1C(=O)N[C@H]([C@H](C)CC)C(=O)N[C@@H](CC(=O)O)C(=O)N[C@@H]([C@@H](O)C(=O)O)C(=O)N2CCC[C@H]2C(=O)NCC(=O)N[C@H](CCC(=O)O)C(=O)N[C@@H](CCC(=O)O)C(=O)N(C)CC(=O)O[C@@H]1C
- MIC (Staphylococcus aureus [1]): ≥ 128 mg/L
- MIC (Escherichia coli): ≥ 128 mg/L
- MIC (Pseudomonas aeruginosa): ≥ 128 mg/L
- MIC (Bacillus pumilus): ≥ 128 mg/L
- MIC (Staphylococcus aureus [2]): ≥ 128 mg/L

SMILES: CCCCCCCCCC(=O)NC[C@@H](C)C(=O)NCC(=O)N[C@H](CCC(=O)O)C(=O)N[C@@H](Cc1ccc(O)cc1)C(=O)N[C@@H]1C(=O)N[C@H]([C@H](C)CC)C(=O)N[C@@H](CC(=O)O)C(=O)N[C@@H]([C@@H](O)C(=O)OC)C(=O)N2CCC[C@H]2C(=O)NCC(=O)N[C@H](CCC(=O)O)C(=O)N[C@@H](CCC(=O)O)C(=O)N(C)CC(=O)O[C@@H]1C
- MIC (Staphylococcus aureus [1]): ≥ 128 mg/L
- MIC (Escherichia coli): ≥ 128 mg/L
- MIC (Pseudomonas aeruginosa): ≥ 128 mg/L
- MIC (Bacillus pumilus): ≥ 128 mg/L
- MIC (Staphylococcus aureus [2]): ≥ 128 mg/L

SMILES: CCCCCCCC(=O)NC[C@@H](C)C(=O)NCC(=O)N[C@H](CCC(=O)O)C(=O)N[C@@H](Cc1ccc(O)cc1)C(=O)N[C@@H]1C(=O)N[C@H]([C@H](C)CC)C(=O)N[C@@H](CC(=O)O)C(=O)N[C@@H](CC(=O)O)C(=O)N2CCC[C@H]2C(=O)NCC(=O)N[C@H](CCC(=O)O)C(=O)N[C@@H](CCC(=O)O)C(=O)N(C)CC(=O)O[C@@H]1C
- MIC (Staphylococcus aureus [1]): ≥ 128 mg/L
- MIC (Escherichia coli): ≥ 128 mg/L
- MIC (Pseudomonas aeruginosa): ≥ 128 mg/L
- MIC (Bacillus pumilus): ≥ 128 mg/L
- MIC (Staphylococcus aureus [2]): ≥ 128 mg/L
